Where “and” joins values, the source holds several entries; their conditions need not be identical. Identical values can stand only once. Like-named read-outs stand apart in the source and are kept apart here.
Key:
MCR-5 cells = assay: Cytotoxicity towards MCR-5 (MRC5) cells; type: cell-based
Procedure: (§1) 3.3. Evaluations of cytotoxicity towards MCR-5 and KB cells
(§2) Cytotoxicities were evaluated at the ICSN-CNRS (Gif sur Yvette, France) on MRC5 and KB cells, in DMSO, at 10 and 1 µg/mL according to the procedure described by Moret et al..

[1] = system: Plasmodium falciparum FcB1 Colombia; assay: In vitro P. falciparum culture antimalarial activity assay; type: cell-based
Procedure: 3.4. In vitro P. falciparum culture and activity assays
Antimalarial activity was evaluated on FcB1 Colombia strain of Plasmodium falciparum according to a previously described procedure.

Leishmania major = assay: In vitro leishmanicidal activity, promastigote susceptibility (Uptiblue micromethod); type: cell-based; settings: promastigotes, MHOM/Il/81/BNI, 96 h at 26 °C
Procedure: 3.5. In vitro leishmanicidal activity
Leishmania major (MHOM/Il/81/BNI) was cultivated at 26 °C in a Schneider’s insect medium (Sigma, St Quentin Fallavier, France) supplemented with 15% foetal bovine serum (FBS) (Sigma), penicillin (100 IU/mL) and streptomycin (50 µg/mL). Exponentially growing cells were maintained at 26 °C. Promastigote susceptibility testing was performed with the Uptiblue® micromethod previously described. Briefly, 100 µL of a […] promastigotes/mL suspension were placed into wells of a 96-well microplate (Nunc®). The cultures were exposed for 96 h at 26 °C to the antileishmanial drugs at the concentrations used above, except for meglumine antimoniate for which dilutions were 0.2, 2 and 20 mg·mL^-1. Four h before measurement, 10 µL of Uptiblue® were added. The fluorescence was measured at 590 nm with an excitation at 550 nm.

KB cells = assay: Cytotoxicity towards KB cells; type: cell-based
Procedure: as §1, §2

[2] = set-up: method as in PMID 17109902; settings: quaternary protoberberines, as expected; cited from earlier work
[3] = Plasmodium falciparum, FcB1 Colombia strain, read-out: Antimalarial IC50 Plasmodium falciparum FcB1 Colombia
[4] = Plasmodium falciparum, FCB1, read-out: Antimalarial IC50 Plasmodium falciparum FcB1 Colombia

Row | Compound | Cytotoxicity MCR-5 cells 10 µg/mL (MCR-5 cells; human, 10 µg/mL) | IC50 [1, 3] | IC50 (Leishmania major; Leishmania major) | other results
1 | COc1cc2c(cc1OC)C(Cc1ccc(O)cc1)N(C)CC2 (single isomer, unassigned; (-)) [(-)-Armepavine 9, (-)-armepavine] | 0 | 3.6 µg/mL and 11.4 µM |  | 
2 | COc1cc2c3c(c1OC)Oc1c(OC)c(OC)cc4c1C(Cc1ccc(O)c(c1)Oc1ccc(cc1)CC2N(C)CC3)NCC4 (single isomer, unassigned; (-)) [(-)-Northalfoetidine 5, (-)-northalfoetidine] | 6 | 2.8 µg/mL and 4.5 µM | 39 µg/mL and 63 µM | 
3 | COc1ccc2cc1Oc1ccc(cc1)CC1c3cc(OC)c(OC)c(c3CCN1C)Oc1c(OC)c(OC)cc3c1C(C2)NCC3 (single isomer, unassigned; (-)) [(-)-Northalidasine 2, (-)-northalidasine] | 0 | 3.4 µg/mL and 5.2 µM | 27 µg/mL and 41 µM | 
4 | COc1ccc2cc1Oc1ccc(cc1)CC1c3cc(OC)c(OC)c(c3CCN1C)Oc1c(O)c(OC)cc3c1C(C2)NCC3 (single isomer, unassigned; (-)) [(-)-Northalrugosidine 3, (-)-northalrugosidine] | 77 | 2.7 µg/mL and 4.3 µM | 30 µg/mL and 48 µM | Cytotoxicity MCR-5 cells 1 µg/mL (MCR-5 cells; human, 1 µg/mL): 0
5 | COc1cc2c3c(c1OC)Oc1c(OC)c(OC)cc4c1C(Cc1ccc(O)c(c1)Oc1ccc(cc1)CC2N(C)CC3)N(C)CC4 (single isomer, unassigned; (-)) [(-)-Thalfoetidine 4, (-)-thalfoetidine] | 62 | 2.1 µg/mL and 3.3 µM | 17 µg/mL and 27 µM | Cytotoxicity MCR-5 cells 1 µg/mL (MCR-5 cells; human, 1 µg/mL): 0
6 | COc1cc2c3c(c1O)Oc1c4c(cc(OC)c1OC)C(Cc1ccc(cc1)Oc1cc(ccc1O)CC3N(C)CC2)N(C)CC4 (single isomer, unassigned; (-)) [(-)-Thaligosidine 6, (-)-thaligosidine] | 61 | 1.2 µg/mL and 2 µM | 38 µg/mL and 61 µM | Cytotoxicity MCR-5 cells 1 µg/mL (MCR-5 cells; human, 1 µg/mL): 0
7 | COc1cc2c(cc1OC)-c1c3c(c(OC)c4c1[C@H](C2)NCC4)OCO3 [(+)-O-Methylcassythine 7, (+)-O-methylcassythine] | 61 | 8.6 µM |  | Cytotoxicity MCR-5 cells 1 µg/mL (MCR-5 cells; human, 1 µg/mL): 4; Cytotoxicity KB cells 10 µg/mL (KB cells): 49; IC50 [1, 4]: 3.1 µg/mL
8 | COc1cc2c(cc1OC)-c1c(O)c(OC)c(OC)c3c1[C@H](C2)N(C)CC3 [(+)-Preocoteine 1, (+)-preocoteine] | 20 | 1.3 µM | > 100 µg/mL and > 100 µM | Cytotoxicity KB cells 10 µg/mL (KB cells): 23; IC50 [1, 4]: 0.5 µg/mL
9 | COc1ccc2cc3[n+](cc2c1OC)CCc1cc2c(cc1-3)OCO2 [Berberine 11, berberine] |  | 0.4 µg/mL and 900 nM | 13 µg/mL and 35 µM | Cytotoxicity (in words) [2]: cytotoxic
10 | CCN(CC)CCCC(C)Nc1ccnc2cc(Cl)ccc12 (stereo not shown) [Chloroquine, reference compound] |  |  |  | IC50 [1, 4]: 0.06 µg/mL and 100 nM
11 | N=C(N)c1ccc(OCCCCCOc2ccc(C(=N)N)cc2)cc1 [Pentamidine, reference compound] |  |  | 28 µg/mL and 82 µM | 
12 | COc1cc2cc3[n+](cc2cc1OC)CCc1cc2c(cc1-3)OCO2 [Pseudoberberine 12, pseudoberberine] |  | 0.5 µg/mL and 1.3 µM | 3.5 µg/mL and 9 µM | Cytotoxicity (in words) [2]: cytotoxic
13 | COc1cc(CCN(C)C)c2ccc3cc4c(c5c(=O)oc1c2c35)OCO4 [Thaliglucinone 10, thaliglucinone] |  | 6.7 µM | 63 µg/mL and 173 µM | Cytotoxicity MCR-5 cells 1 µg/mL (MCR-5 cells; MCR-5 (MRC5) cells, compound at 1 µg/mL in DMSO): 21; Cytotoxicity MCR-5 cells 10 µg/mL (MCR-5 cells; MCR-5 (MRC5) cells, compound at 10 µg/mL in DMSO): 79; IC50 [1, 4]: 2.4 µg/mL
14 | (+)-thalicberine [(+)-Thalicberine 8] |  |  |  | Cytotoxicity MCR-5 cells 10 µg/mL (MCR-5 cells): 29; Cytotoxicity KB cells 10 µg/mL (KB cells): 43; Antimalarial IC50 Plasmodium falciparum FcB1 Colombia ([1]; FcB1 Colombia strain): 2.5 µg/mL; IC50 ([1]; FcB1 Colombia strain, read-out: Antimalarial IC50 Plasmodium falciparum FcB1 Colombia): 4.2 µM; IC50 (Leishmania major): 90 µM; Leishmanicidal IC50 Leishmania major (Leishmania major): 55 µg/mL
